Results taken from patent US8952024B2, “Herbicidal pyrimidone derivatives” (E I du Pont de Nemours and Company, priority 2009, dated 2015).

Tests used:
Type in all cases: in vivo
[1] = system: pigweed (Amaranthus retroflexus); experiment: Test A pre-/postemergence plant response; details: for Pigweed plant response rating: visual injury, 0 to 100 scale (0 no effect, 100 complete control), approx. ten days
In short: (§1)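 Formulated test chemicals (non-phytotoxic solvent, surfactant) were sprayed onto soil right after planting and simultaneously onto young plants at one to two leaves, 2 to 10 cm tall. Plants stayed in the greenhouse about ten days; injury was then visually scored against untreated controls, from 0 (no effect) to 100 (complete control).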

[2] = system: giant foxtail (Setaria faberii); experiment: Test A pre-/postemergence plant response; details: for Foxtail, Giant plant response rating: visual injury, 0 to 100 scale (0 no effect, 100 complete control), approx. ten days
In short: as §1

[3] = system: morningglory (Ipomoea spp.); experiment: Test A pre-/postemergence plant response; details: for Morningglory plant response rating: visual injury, 0 to 100 scale (0 no effect, 100 complete control), approx. ten days
In short: as §1

[4] = system: velvetleaf (Abutilon theophrasti); experiment: Test A pre-/postemergence plant response; details: for Velvetleaf plant response rating: visual injury, 0 to 100 scale (0 no effect, 100 complete control), approx. ten days
In short: as §1

[5] = system: large crabgrass (Digitaria sanguinalis); experiment: Test A pre-/postemergence plant response; details: for Crabgrass, Large plant response rating: visual injury, 0 to 100 scale (0 no effect, 100 complete control), approx. ten days
In short: as §1

[6] = system: barnyardgrass (Echinochloa crus-galli); experiment: Test A pre-/postemergence plant response; details: for Barnyardgrass plant response rating: visual injury, 0 to 100 scale (0 no effect, 100 complete control), approx. ten days
In short: as §1

[7] = system: corn (Zea mays); experiment: Test A pre-/postemergence plant response; details: for Corn plant response rating: visual injury, 0 to 100 scale (0 no effect, 100 complete control), approx. ten days
In short: as §1

[8] = system: wheat (Triticum aestivum); experiment: Test A pre-/postemergence plant response; details: for Wheat plant response rating: visual injury, 0 to 100 scale (0 no effect, 100 complete control), approx. ten days
In short: as §1

[9] = system: umbrella sedge (Cyperus difformis); experiment: Test B flooded paddy test; details: for Plant response rating, Flood, Sedge, Umbrella: 250 g ai/ha, flooded paddy test, visual rating on 0 to 100 scale (0 no effect, 100 complete control) after 13 to 15 days; for Plant response rating, Sedge, Umbrella: Flood (flooded paddy test), 13 to 15 days
In short: (§2)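 Flooded-pot test: water raised to 3 cm above soil when treating, compound put in the water, level unchanged thereafter. Plants were at 2 leaves. Readout after 13 to 15 days, visual, relative to controls; 0 signifies no effect and 100 complete control.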

[10] = system: ducksalad (Heteranthera limosa); experiment: Test B flooded paddy test; details: for Plant response rating, Flood, Ducksalad: 250 g ai/ha, flooded paddy test, visual rating on 0 to 100 scale (0 no effect, 100 complete control) after 13 to 15 days; for Plant response rating, Ducksalad: Flood (flooded paddy test), 13 to 15 days
In short: as §2

[11] = system: rice (Oryza sativa); experiment: Test B flooded paddy test; details: for Plant response rating, Flood, Rice: 250 g ai/ha, flooded paddy test, visual rating on 0 to 100 scale (0 no effect, 100 complete control) after 13 to 15 days; for Plant response rating, Rice: Flood (flooded paddy test), 13 to 15 days
In short: as §2

[12] = system: barnyardgrass (Echinochloa crus-galli); experiment: Test B flooded paddy test; details: for Plant response rating, Flood, Barnyardgrass: 250 g ai/ha, flooded paddy test, visual rating on 0 to 100 scale (0 no effect, 100 complete control) after 13 to 15 days; for Plant response rating, Barnyardgrass: Flood (flooded paddy test), 13 to 15 days
In short: as §2

[13] = Postemergence, 125 g ai/ha, 0 to 100 scale where 0 is no effect and 100 is complete control
[14] = Preemergence, 125 g ai/ha, 0 to 100 scale, 0 = no effect, 100 = complete control
[15] = Preemergence, 500 g ai/ha, 0 to 100 scale, 0 = no effect, 100 = complete control
[16] = 62 g ai/ha, scale of 0 to 100 where 0 is no effect and 100 is complete control
[17] = 125 g ai/ha, scale 0 to 100, 0 is no effect, 100 is complete control
[18] = Flood, 31 g ai/ha, scale 0 to 100 (0 no effect, 100 complete control)

## O=C1CCCC(O)=C1C(=O)c1cnc(-c2cccc(Br)c2)n(C2CCCCC2)c1=O [Compound 206]
[1]; [13]
  Plant response rating, Pigweed: 90
[1]; Postemergence, 500 g ai/ha
  Pigweed plant response rating: 100
[1]; [14]
  Plant response rating, Pigweed: 30
[1]; [15]
  Plant response rating, Pigweed: 80
[2]; [13]
  Plant response rating, Foxtail, Giant: 50
[2]; Postemergence, 500 g ai/ha
  Foxtail, Giant plant response rating: 90
[2]; [14]
  Plant response rating, Foxtail, Giant: 0
[2]; [15]
  Plant response rating, Foxtail, Giant: 60
[3]; [13]
  Plant response rating, Morningglory: 100
[3]; Postemergence, 500 g ai/ha
  Morningglory plant response rating: 100
[3]; [14]
  Plant response rating, Morningglory: 0
[3]; [15]
  Plant response rating, Morningglory: 0
[4]; [13]
  Plant response rating, Velvetleaf: 100
[4]; Postemergence, 500 g ai/ha
  Velvetleaf plant response rating: 100
[4]; [14]
  Plant response rating, Velvetleaf: 0
[4]; [15]
  Plant response rating, Velvetleaf: 60
[5]; [13]
  Plant response rating, Crabgrass, Large: 60
[5]; Postemergence, 500 g ai/ha
  Crabgrass, Large plant response rating: 100
[5]; [14]
  Plant response rating, Crabgrass, Large: 10
[5]; [15]
  Plant response rating, Crabgrass, Large: 60
[6]; [13]
  Plant response rating, Barnyardgrass: 90
[6]; Postemergence, 500 g ai/ha
  Barnyardgrass plant response rating: 100
[6]; [14]
  Plant response rating, Barnyardgrass: 0
[6]; [15]
  Plant response rating, Barnyardgrass: 20
[7]; [13]
  Plant response rating, Corn: 0
[7]; Postemergence, 500 g ai/ha
  Corn plant response rating: 0
[7]; [14]
  Plant response rating, Corn: 0
[7]; [15]
  Plant response rating, Corn: 0
[8]; [13]
  Plant response rating, Wheat: 0
[8]; Postemergence, 500 g ai/ha
  Wheat plant response rating: 0
[8]; [14]
  Plant response rating, Wheat: 0
[8]; [15]
  Plant response rating, Wheat: 0
[9]
  Plant response rating, Flood, Sedge, Umbrella: 85
[9]; [16]
  Plant response rating, Sedge, Umbrella: 60
[10]
  Plant response rating, Flood, Ducksalad: 90
[10]; [16]
  Plant response rating, Ducksalad: 70
[11]
  Plant response rating, Flood, Rice: 20
[11]; [16]
  Plant response rating, Rice: 0
[12]
  Plant response rating, Flood, Barnyardgrass: 0
[12]; [16]
  Plant response rating, Barnyardgrass: 0

## O=C1CCCC(O)=C1C(=O)c1cnc(-c2ccccc2)n(CCC(F)(F)F)c1=O [Compound 207]
[1]; [13]
  Plant response rating, Pigweed: 100
[1]; Postemergence, 500 g ai/ha
  Pigweed plant response rating: 100
[1]; [14]
  Plant response rating, Pigweed: 80
[1]; [15]
  Plant response rating, Pigweed: 100
[2]; [13]
  Plant response rating, Foxtail, Giant: 60
[2]; Postemergence, 500 g ai/ha
  Foxtail, Giant plant response rating: 90
[2]; [14]
  Plant response rating, Foxtail, Giant: 30
[2]; [15]
  Plant response rating, Foxtail, Giant: 80
[3]; [13]
  Plant response rating, Morningglory: 40
[3]; Postemergence, 500 g ai/ha
  Morningglory plant response rating: 80
[3]; [14]
  Plant response rating, Morningglory: 0
[3]; [15]
  Plant response rating, Morningglory: 70
[4]; [13]
  Plant response rating, Velvetleaf: 100
[4]; Postemergence, 500 g ai/ha
  Velvetleaf plant response rating: 100
[4]; [14]
  Plant response rating, Velvetleaf: 70
[4]; [15]
  Plant response rating, Velvetleaf: 100
[5]; [13]
  Plant response rating, Crabgrass, Large: 60
[5]; Postemergence, 500 g ai/ha
  Crabgrass, Large plant response rating: 90
[5]; [14]
  Plant response rating, Crabgrass, Large: 60
[5]; [15]
  Plant response rating, Crabgrass, Large: 100
[6]; [13]
  Plant response rating, Barnyardgrass: 60
[6]; Postemergence, 500 g ai/ha
  Barnyardgrass plant response rating: 90
[6]; [14]
  Plant response rating, Barnyardgrass: 10
[6]; [15]
  Plant response rating, Barnyardgrass: 50
[7]; [13]
  Plant response rating, Corn: 0
[7]; Postemergence, 500 g ai/ha
  Corn plant response rating: 30
[7]; [14]
  Plant response rating, Corn: 0
[7]; [15]
  Plant response rating, Corn: 0
[8]; [13]
  Plant response rating, Wheat: 0
[8]; Postemergence, 500 g ai/ha
  Wheat plant response rating: 0
[8]; [14]
  Plant response rating, Wheat: 0
[8]; [15]
  Plant response rating, Wheat: 0
[9]
  Plant response rating, Flood, Sedge, Umbrella: 70
[9]; [16]
  Plant response rating, Sedge, Umbrella: 40
[9]; [17]
  Plant response rating, Sedge, Umbrella: 60
[9]; [18]
  Sedge, Umbrella plant response rating: 0
[10]
  Plant response rating, Flood, Ducksalad: 50
[10]; [16]
  Plant response rating, Ducksalad: 0
[10]; [17]
  Plant response rating, Ducksalad: 0
[10]; [18]
  Ducksalad plant response rating: 0
[11]
  Plant response rating, Flood, Rice: 15
[11]; [16]
  Plant response rating, Rice: 0
[11]; [17]
  Plant response rating, Rice: 15
[11]; [18]
  Rice plant response rating: 0
[12]
  Plant response rating, Flood, Barnyardgrass: 20
[12]; [16]
  Plant response rating, Barnyardgrass: 0
[12]; [17]
  Plant response rating, Barnyardgrass: 0
[12]; [18]
  Barnyardgrass plant response rating: 0
